How the values were obtained:
Assay type in all cases: functional
[1] = tested on: OVCAR-8; experiment: Growth inhibition of human OVCAR8 cells
[2] = tested on: SR; experiment: Growth inhibition of human SR cells
[3] = tested on: SN12C; experiment: Growth inhibition of human SN12C cells
[4] = tested on: SK-OV-3; experiment: Growth inhibition of human SKOV3 cells
[5] = tested on: A549; experiment: Growth inhibition of human A549 cells
[6] = tested on: UACC-257; experiment: Growth inhibition of human UACC257 cells
[7] = tested on: SF-295; experiment: Growth inhibition of human SF295 cells
[8] = tested on: NCI-H460; experiment: Growth inhibition of human NCI-H460 cells
[9] = tested on: HL-60(TB); experiment: Growth inhibition of human HL-60(TB) cells
[10] = Growth inhibition of human […] cells
[11] = tested on: NCI-H522; experiment: Growth inhibition of human NCI-H522 cells
[12] = tested on: OVCAR-4; experiment: Growth inhibition of human OVCAR4 cells
[13] = tested on: HOP-92; experiment: Growth inhibition of human HOP92 cells
[14] = tested on: KM12; experiment: Growth inhibition of human KM12 cells
[15] = tested on: OVCAR-3; experiment: Growth inhibition of human OVCAR-3 cells
[16] = tested on: P388; experiment: Growth inhibition of mouse P388 cells assessed as zone units at 50 ug/disk by disk diffusion agar colony formation assay
[17] = tested on: SF-539; experiment: Growth inhibition of human SF539 cells
[18] = tested on: HOP-62; experiment: Growth inhibition of human HOP62 cells
[19] = tested on: MCF7; experiment: Growth inhibition of human MCF7 cells
[20] = tested on: NCI-H226; experiment: Growth inhibition of human NCI-H226 cells
[21] = tested on: T47D; experiment: Growth inhibition of human T47D cells
[22] = tested on: Malme-3M; experiment: Growth inhibition of human MALME-3M cells
[23] = tested on: DU-145; experiment: Growth inhibition of human DU145 cells
[24] = tested on: UACC-62; experiment: Growth inhibition of human UACC62 cells
[25] = tested on: U-251; experiment: Growth inhibition of human U251 cells
[26] = tested on: SK-MEL-28; experiment: Growth inhibition of human SK-MEL-28 cells
[27] = tested on: SNB-19; experiment: Growth inhibition of human SNB19 cells
[28] = tested on: 786-0; experiment: Growth inhibition of human 786-0 cells
[29] = tested on: OVCAR-5; experiment: Growth inhibition of human OVCAR5 cells
[30] = tested on: BT-549; experiment: Growth inhibition of human BT549 cells
[31] = tested on: CAKI-1; experiment: Growth inhibition of human Caki1 cells
[32] = tested on: NCI-H322M; experiment: Growth inhibition of human NCI-H322M cells
[33] = tested on: EKVX; experiment: Growth inhibition of human EKVX cells
[34] = tested on: MDA-MB-231; experiment: Growth inhibition of human MDA-MB-231 cells
[35] = tested on: MOLT-4; experiment: Growth inhibition of human MOLT4 cells
[36] = tested on: HCT-116; experiment: Growth inhibition of human HCT116 cells
[37] = tested on: PO3; experiment: Growth inhibition of mouse PO3 cells assessed as zone units at 50 ug/disk by disk diffusion agar colony formation assay
[38] = tested on: IGROV-1; experiment: Growth inhibition of human IGROV1 cells
[39] = Growth inhibition of human H116 cells assessed as zone units at 50 ug/disk by disk diffusion agar colony formation assay
[40] = tested on: NCI-H23; experiment: Growth inhibition of human NCI-H23 cells
[41] = tested on: SW-620; experiment: Growth inhibition of human SW620 cells
[42] = tested on: MDA-MB-435; experiment: Growth inhibition of human MDA-MB-435 cells
[43] = tested on: COLO 205; experiment: Growth inhibition of human COLO205 cells
[44] = tested on: SK-MEL-2; experiment: Growth inhibition of human SK-MEL-2 cells
[45] = tested on: MDA-N; experiment: Growth inhibition of human MDA-N cells
[46] = Growth inhibition of human Hs 578T cells
[47] = tested on: HT-29; experiment: Growth inhibition of human HT-29 cells
[48] = tested on: SK-MEL-5; experiment: Growth inhibition of human SK-MEL-5 cells
[49] = tested on: L1210; experiment: Growth inhibition of mouse L1210 cells assessed as zone units at 50 ug/disk by disk diffusion agar colony formation assay
[50] = tested on: ACHN; experiment: Growth inhibition of human ACHN cells
[51] = tested on: HCC 2998; experiment: Growth inhibition of human HCC2998 cells
[52] = Growth inhibition of human MCF7/ADR resistant cells; settings: NCI/ADR-RES
[53] = tested on: HCT-15; experiment: Growth inhibition of human HCT15 cells
[54] = Growth inhibition of mouse M17/ADR cells assessed as zone units at 50 ug/disk by disk diffusion agar colony formation assay
[55] = tested on: UO-31; experiment: Growth inhibition of human UO31 cells
[56] = tested on: CCRF-CEM; experiment: Growth inhibition of human CCRF-CEM cells
[57] = tested on: M14; experiment: Growth inhibition of human M14 cells
[58] = tested on: A498; experiment: Growth inhibition of human A498 cells
[59] = tested on: RXF 393; experiment: Growth inhibition of human […] cells
[60] = tested on: SNB-75; experiment: Growth inhibition of human SNB75 cells

For `CC(=O)CC/C=C(\C)CCC1=C(C)CCCC1(C)C`, the GI50 [1] was greater than 15 µM, the GI50 [2] was 4.94 µM and the GI50 [3] was 9.48 µM. For the same compound, the GI50 [4] was greater than 15 µM, the GI50 [5] was greater than 15 µM and the GI50 [6] was greater than 15 µM. For the same compound, the GI50 [7] was greater than 15 µM, the GI50 [8] was greater than 15 µM and the GI50 [9] was 2.88 µM. The GI50 [10] was greater than 15 µM, the GI50 [11] was greater than 15 µM and the GI50 [12] was greater than 15 µM. It also gave a GI50 [13] greater than 15 µM, a GI50 [14] of 8.61 µM and a GI50 [15] greater than 15 µM. The Activity [16] was 60 Zone units, the GI50 [17] was greater than 15 µM and the GI50 [18] was greater than 15 µM. It also gave a GI50 [19] greater than 15 µM, a GI50 [20] greater than 15 µM and a GI50 [21] greater than 15 µM. For the same compound, the GI50 [22] was greater than 15 µM, the GI50 [23] was greater than 15 µM and the GI50 [24] was greater than 15 µM. It also gave a GI50 [25] greater than 15 µM, a GI50 [26] greater than 15 µM and a GI50 [27] of less than 0.0015 µM. It also gave a GI50 [28] greater than 15 µM, a GI50 [29] greater than 15 µM and a GI50 [30] greater than 15 µM. The GI50 [31] was greater than 15 µM, the GI50 [32] was greater than 15 µM and the GI50 [33] was greater than 15 µM. It also gave a GI50 [34] greater than 15 µM, a GI50 [35] of 2.08 µM and a GI50 [36] greater than 15 µM. It also gave an Activity [37] of 40 Zone units, a GI50 [38] of 9.53 µM and an Activity [39] of 30 Zone units. The GI50 [40] was greater than 15 µM, the GI50 [41] was 6.34 µM and the GI50 [42] was greater than 15 µM. It also gave a GI50 [43] greater than 15 µM, a GI50 [44] greater than 15 µM and a GI50 [45] greater than 15 µM. The GI50 [46] was 1.86 µM, the GI50 [47] was greater than 15 µM and the GI50 [48] was greater than 15 µM. The Activity [49] was 60 Zone units, the GI50 [50] was greater than 15 µM and the GI50 [51] was greater than 15 µM. The GI50 [52] was greater than 15 µM, the GI50 [53] was greater than 15 µM and the Activity [54] was 0 Zone units. For the same compound, the GI50 [55] was greater than 15 µM, the GI50 [56] was 2.94 µM and the GI50 [57] was less than 0.0015 µM. The GI50 [58] was greater than 15 µM, the GI50 [59] was greater than 15 µM and the GI50 [60] was 5.15 µM.
